The target in one assay is T1, CCK-B receptor (Cavia porcellus, UniProt H0VZC5).
T1 construct: CCK-B receptor (guinea pig cortex assay); from tissue; host or cells: guinea pig cortex
T1 sequence (H0VZC5 1-426): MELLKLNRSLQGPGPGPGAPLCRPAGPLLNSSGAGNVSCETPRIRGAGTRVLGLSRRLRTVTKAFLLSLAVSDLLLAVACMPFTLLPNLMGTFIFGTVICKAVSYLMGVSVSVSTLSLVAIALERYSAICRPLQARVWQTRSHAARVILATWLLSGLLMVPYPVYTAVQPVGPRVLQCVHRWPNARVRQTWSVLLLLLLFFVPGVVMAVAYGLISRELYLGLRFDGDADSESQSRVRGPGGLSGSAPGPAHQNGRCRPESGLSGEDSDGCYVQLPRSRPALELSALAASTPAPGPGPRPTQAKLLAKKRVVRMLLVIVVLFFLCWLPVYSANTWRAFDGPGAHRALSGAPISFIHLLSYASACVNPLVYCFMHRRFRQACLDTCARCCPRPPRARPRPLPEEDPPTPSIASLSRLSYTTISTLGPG
Put plainly: CCK receptor binding, CCK-B (guinea pig cortex assay). How it is done: (§1) Exp & Ther. 261, 1056-1063, 1992.
(§2) The binding affinity of the compounds of the invention for the CCK-A receptor (Pancreas Assay) and CCK-B receptor (guinea pig cortex assay) was determined using the procedure of G Dal Forno et al J. Pharmacol. Exp & Ther. 261-1056-1063.

Another assay deals with CCK-A receptor. Put plainly: CCK receptor binding, CCK-A (Pancreas Assay). Here is the method: as §1, §2
The mark [1] stands for this setting: CCK-B receptor, guinea pig cortex assay, read-out: pKi CCK-B (converted).

SMILES strings stand for the structures. Like-named read-outs stand apart in the source and are kept apart here.

`CC(C)CCN1C(=O)C(NC(=O)Nc2ccccc2)C(=O)N(CC23CC4CC(CC(C4)C2)C3)c2ccccc21` (centres unmarked) [Example 1, N-[1-(1-Adamantylmethyl)-2,4-dioxo-5-(3-methylbut-1-yl)-2,3,4,5-tetrahydro-1H-1,5-benzodiazepin-3-yl]-N'-phenylurea]: the Ki on CCK-B receptor (setting [1]) was 1.38 nM. Besides, the “pKi CCK-A” value on CCK-A receptor is recorded as 6.54.

With `Cc1cccc(NC(=O)NC2C(=O)N(CCO)c3ccccc3N(CC34CC5CC(CC(C5)C3)C4)C2=O)c1` (centres unmarked) [Example 10], the Ki at CCK-B receptor (setting [1]) is 0.398 nM. Further, at CCK-A receptor, the “pKi CCK-A” value is 6.8.

`O=C(Nc1ccccc1)NC1C(=O)N(CCCO)c2ccccc2N(CC23CC4CC(CC(C4)C2)C3)C1=O` (centres unmarked) [Example 14, N-[1-(Adamantane-1-methyl)-2,4-dioxo-5-(3-hydroxypropyl)-2,3,4,5-tetrahydro-1H-1,5-benzodiazepin-3-yl]-N'-phenylurea]: the Ki on CCK-B receptor (setting [1]) is 0.389 nM. For the same molecule, the “pKi CCK-A” value at CCK-A receptor is 6.09.

As to `O=C(Nc1ccccc1)NC1C(=O)N(CCO)c2ccccc2N(CC23CC4CC(CC(C4)C2)C3)C1=O` (centres unmarked) [Example 9, N-[1-(Adamantylmethyl)-2,4-dioxo-5-(2-hydroxyethyl)-2,3,4,5-tetrahydro-1H-1,5-benzodiazepin-3-yl]-N'-phenylurea], the Ki on CCK-B receptor (setting [1]) is 1.41 nM.

At CCK-B receptor, `CC(C)CCN1C(=O)C(NC(=O)Oc2cccc(N(C)C)c2)C(=O)N(CC23CC4CC(CC(C4)C2)C3)c2ccccc21` (centres unmarked) [Example 4, 1-(1-Adamantylmethyl)-3-[3-(N,N-dimethylamino)phenyloxycarbonyl]amino-2,4-dioxo-5-(3-methylbut-1-yl)-2,3,4,5-tetrahydro-1H-1,5-benzodiazepine] had a Ki of 7.59 nM. Moreover, the “pKi CCK-A” value at CCK-A receptor amounted to 5.80.

`O=C(Nc1ccccc1)NC1C(=O)N(CCO)c2ccccc2N(CC23CC4CC(CC(C4)C2)C3)C1=O` (single isomer, unassigned; (-)) [Example 11, (-)-N-[1-(Adamantylmethyl)-2,4-dioxo-5-(2-hydroxyethyl)-2,3,4,5-tetrahydro-1H-1,5-benzodiazepin-3-yl]-N'-phenylurea]: on CCK-B receptor (setting [1]), the Ki was 0.251 nM.

In the case of `CCCCN1C(=O)C(NC(=O)Nc2ccc(OC)cc2)C(=O)N(CCC(C)C)c2ccccc21` (centres unmarked) [Example 12], at CCK-B receptor (setting [1]), the Ki is 2.04 nM. In addition, the “pKi CCK-A” value at CCK-A receptor was determined as 6.16.

Consider `CC(C)CCN1C(=O)C(NC(=O)Nc2cccc(N(C)C)c2)C(=O)N(CC23CC4CC(CC(C4)C2)C3)c2ccccc21` (centres unmarked) [Example 2, N-[1-(1-Adamantylmethyl)-2,4-dioxo-5-(3-methylbut-1-yl)-2,3,4,5-tetrahydro-1H-1,5-benzodiazepin-3-yl]-N'-[3-(N,N-dimethylamino)phenyl]urea], for which, on CCK-B receptor, the Ki is 5.62 nM. For the same molecule, at CCK-A receptor, the “pKi CCK-A” value was determined as 6.02.

As for `CN1C(=O)C(NC(=O)Nc2ccccc2)C(=O)N(CC23CC4CC(CC(C4)C2)C3)c2ccccc21` (single isomer, unassigned; (-)) [Example 8, (-)-N-[1-(Adamantylmethyl)-2,4-dioxo-5-methyl-2,3,4,5-tetrahydro-1H-1,5-benzodiazepin-3-yl]-N'-phenylurea], on CCK-B receptor (setting [1]), the Ki was 1 nM.

`O=C(Nc1ccccc1)NC1C(=O)N(CC23CC4CC(CC(C4)C2)C3)c2ccccc2N(C2CCCCC2)C1=O` (centres unmarked) [Example 3]: the Ki at CCK-B receptor is 2.4 nM. The “pKi CCK-A” value at CCK-A receptor amounted to 6.25.

(Values after patent US5686449A, “1,5-benzodiazepines useful as gastrinor CCK-antagonists” (priority 1994, dated 1997).)
